# Experimental data as given in patent US20250320206A1, “STAT6 DEGRADERS” (Gilead Sciences, Inc., priority 2024, published 2025).
# Assays:
# STAT6 = target: T1, STAT6 (Homo sapiens, UniProt P42226); test: Stat6 Degrader Assay (HiBiT based, HeLa LgBiT clone 4.14); format: cell-based; details: HeLa LgBiT clone 4.14 HiBiT-STAT6, 4-24 h incubation; values given for compounds with >80% Emax; geometric mean; read-out: STAT6 degradation DC50
# T1 construct: These cells express endogenous STAT6; host or cells: HeLa LgBiT clone 4.14
# T1 sequence (P42226 1-847): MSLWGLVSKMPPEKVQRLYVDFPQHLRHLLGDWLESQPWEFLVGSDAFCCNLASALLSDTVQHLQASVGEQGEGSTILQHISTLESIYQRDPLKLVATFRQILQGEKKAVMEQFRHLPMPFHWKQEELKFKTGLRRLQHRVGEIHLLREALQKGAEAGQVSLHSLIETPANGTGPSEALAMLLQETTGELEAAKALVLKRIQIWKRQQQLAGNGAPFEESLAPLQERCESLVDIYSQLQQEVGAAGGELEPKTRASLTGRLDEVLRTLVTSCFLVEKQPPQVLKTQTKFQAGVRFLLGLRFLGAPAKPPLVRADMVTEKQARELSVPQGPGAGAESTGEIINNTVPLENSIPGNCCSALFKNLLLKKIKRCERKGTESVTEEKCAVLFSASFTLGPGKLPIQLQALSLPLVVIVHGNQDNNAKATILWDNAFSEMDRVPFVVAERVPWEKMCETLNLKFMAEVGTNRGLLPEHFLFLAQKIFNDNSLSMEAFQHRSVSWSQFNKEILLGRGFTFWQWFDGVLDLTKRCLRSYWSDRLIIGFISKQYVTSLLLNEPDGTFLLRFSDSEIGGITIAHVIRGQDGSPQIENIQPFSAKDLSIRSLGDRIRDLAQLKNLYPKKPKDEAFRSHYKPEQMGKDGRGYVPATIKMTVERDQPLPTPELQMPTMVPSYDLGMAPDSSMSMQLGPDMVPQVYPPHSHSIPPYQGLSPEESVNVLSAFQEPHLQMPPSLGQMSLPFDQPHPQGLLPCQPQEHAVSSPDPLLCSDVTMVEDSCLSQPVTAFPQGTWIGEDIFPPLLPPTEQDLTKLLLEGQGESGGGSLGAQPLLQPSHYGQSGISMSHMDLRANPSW
# Procedure, shortened: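 HeLa LgBiT clone 4.14 cells with CRISPR HiBiT-tagged endogenous STAT6, 5000 cells/well, compound dosed then incubated 4-24 h at 37° C, 5% CO2. Nano-Glo substrate added, 0.5 h, luminescence read as non-degraded STAT6. Terfenadine 50 μM (cell kill) defines 100% degradation.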
# [1] = tested on: Eotaxin-3 release in human whole blood stimulated with IL-4; test: Human Whole Blood Eotaxin-3 Assay (IL-4 stimulated eotaxin-3 release); format: cell-based; details: IL-4 stimulation, 48 h, values given for compounds with >80% Emax, geometric mean
# Procedure, shortened: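 Lithium-heparin human whole blood preincubated 2 h at 37° C with 4-fold serially diluted compounds (0.5% DMSO), then stimulated with recombinant human IL-4 ([…]) for 48 h. Eotaxin-3 (CCL26) in supernatant quantified by MSD immunoassay.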
DC50 (STAT6),EC50 [1],SMILES
3.4 nM,5.1 nM,"C[C@H]1CN(Cc2ccc3c(c2)C(C)(C)C(=O)N3C2CCC(=O)NC2=O)CCN1CC1CCN(C(=O)c2cc(F)c(C3CCN(Cc4cc5c(-n6ccc7c(c6=O)CCN7)ccnc5n4C)CC3)c(F)c2)CC1 (stereo partly drawn) [Example 3u86, 3-(5-(((S)-4-((1-(3,5-difluoro-4-(1-((1-methyl-4-(4-oxo-1,2,3,4-tetrahydro-5H-pyrrolo[3,2-c]pyridin-5-yl)-1H-pyrrolo[2,3-b]pyridin-2-yl)methyl)piperidin-4-yl)benzoyl)piperidin-4-yl)methyl)-3-methylpiperazin-1-yl)methyl)-3,3-dimethyl-2-oxoindolin-1-yl)piperidine-2,6-dione]"
3.5 nM,15.2 nM,"CNc1cc(=O)n(-c2ccnc3c2cc([C@H](C)N2CC=C(c4c(C)cc(C(=O)N5CCC(CN6CCN(Cc7ccc8c(c7)C(C)(C)C(=O)N8C7CCC(=O)NC7=O)CC6)CC5)cc4F)CC2)n3C)cc1F (stereo partly drawn) [Example 3u87, 3-(5-((4-((1-(3-fluoro-4-(1-((S)-1-(4-(5-fluoro-4-(methylamino)-2-oxopyridin-1 (2H)-yl)-1-methyl-1H-pyrrolo[2,3-b]pyridin-2-yl)ethyl)-1,2,3,6-tetrahydropyridin-4-yl)-5-methylbenzoyl)piperidin-4-yl)methyl)piperazin-1-yl)methyl)-3,3-dimethyl-2-oxoindolin-1-yl)piperidine-2,6-dione]"
0.3 nM,0.9 nM,"CNc1cc(=O)n(-c2ccnc3c2cc([C@H](C)N2CC=C(c4c(C)cc(C(=O)N5CCC(CN6CCN(Cc7ccc8c(c7)n(C)c(=O)n8C7CCC(=O)NC7=O)C[C@@H]6C)CC5)cc4F)CC2)n3C)cc1F (stereo partly drawn) [Example 3u90, 3-(5-(((S)-4-((1-(3-fluoro-4-(1-((S)-1-(4-(5-fluoro-4-(methylamino)-2-oxopyridin-1 (2H)-yl)-1-methyl-1H-pyrrolo[2,3-b]pyridin-2-yl)ethyl)-1,2,3,6-tetrahydropyridin-4-yl)-5-methylbenzoyl)piperidin-4-yl)methyl)-3-methylpiperazin-1-yl)methyl)-3-methyl-2-oxo-2,3-dihydro-1H-benzo[d]imidazol-1-yl)piperidine-2,6-dione]"
26.9 nM,16.6 nM,"CNc1cc(=O)n(-c2ccnc3c2cc(CN2CCC(c4c(F)cc(C(=O)N5CCC(CN6CCN(Cc7cc8c(cc7F)N(C7CCC(=O)NC7=O)C(=O)C87CC7)CC6)CC5)cc4F)CC2)n3C)cc1F (stereo not shown) [Example 3u93, 3-(5′-((4-((1-(3,5-difluoro-4-(1-((4-(5-fluoro-4-(methylamino)-2-oxopyridin-1 (2H)-yl)-1-methyl-1H-pyrrolo[2,3-b]pyridin-2-yl)methyl)piperidin-4-yl)benzoyl)piperidin-4-yl)methyl)piperazin-1-yl)methyl)-6′-fluoro-2′-oxospiro[cyclopropane-1,3′-indolin]-1′-yl)piperidine-2,6-dione]"
4.1 nM,1 nM,"C[C@H]1CN(Cc2ccc3c(c2)C2(CC2)C(=O)N3C2CCC(=O)NC2=O)CCN1CC1CCN(C(=O)c2cc(F)c(C3CCN(Cc4cc5c(-n6cc(F)c(N)c(F)c6=O)ccnc5n4C)CC3)c(F)c2)CC1 (stereo partly drawn) [Example 3u96, 3-(5′-(((S)-4-((1-(4-(1-((4-(4-amino-3,5-difluoro-2-oxopyridin-1 (2H)-yl)-1-methyl-1H-pyrrolo[2,3-b]pyridin-2-yl)methyl)piperidin-4-yl)-3,5-difluorobenzoyl)piperidin-4-yl)methyl)-3-methylpiperazin-1-yl)methyl)-2′-oxospiro[cyclopropane-1,3′-indolin]-1′-yl)piperidine-2,6-dione]"
2.3 nM,2.4 nM,"C[C@H]1CN(Cc2ccc3c(c2)C2(CCC2)C(=O)N3C2CCC(=O)NC2=O)CCN1CC1CCN(C(=O)c2cc(F)c(C3CCN(Cc4cc5c(-n6ccc7c(c6=O)CCN7)ccnc5n4C)CC3)c(F)c2)CC1 (stereo partly drawn) [Example 3u101, 3-(5′-(((S)-4-((1-(3,5-difluoro-4-(1-((1-methyl-4-(4-oxo-1,2,3,4-tetrahydro-5H-pyrrolo[3,2-c]pyridin-5-yl)-1H-pyrrolo[2,3-b]pyridin-2-yl)methyl)piperidin-4-yl)benzoyl)piperidin-4-yl)methyl)-3-methylpiperazin-1-yl)methyl)-2′-oxospiro[cyclobutane-1,3′-indolin]-1′-yl)piperidine-2,6-dione]"
3.4 nM,1.9 nM,"CNc1nc(=O)n(-c2ccnc3c2cc([C@H](C)N2CC=C(c4c(C)cc(C(=O)N5CCC(CN6CCN(Cc7ccc8c(c7)C7(CC7)C(=O)N8C7CCC(=O)NC7=O)C[C@@H]6C)CC5)cc4F)CC2)n3C)cc1F (stereo partly drawn) [Example 3u102, 3-(5′-(((S)-4-((1-(3-fluoro-4-(1-((S)-1-(4-(5-fluoro-4-(methylamino)-2-oxopyrimidin-1 (2H)-yl)-1-methyl-1H-pyrrolo[2,3-b]pyridin-2-yl)ethyl)-1,2,3,6-tetrahydropyridin-4-yl)-5-methylbenzoyl)piperidin-4-yl)methyl)-3-methylpiperazin-1-yl)methyl)-2′-oxospiro[cyclopropane-1,3′-indolin]-1′-yl)piperidine-2,6-dione]"
2.3 nM,0.8 nM,"C[C@H]1CN(Cc2ccc3c(c2)n(C2CC2)c(=O)n3C2CCC(=O)NC2=O)CCN1CC1CCN(C(=O)c2cc(F)c(C3CCN(Cc4cc5c(-n6ccc7c(c6=O)CCN7)ccnc5n4C)CC3)c(F)c2)CC1 (stereo partly drawn) [Example 3u106, 3-(3-cyclopropyl-5-(((S)-4-((1-(3,5-difluoro-4-(1-((1-methyl-4-(4-oxo-1,2,3,4-tetrahydro-5H-pyrrolo[3,2-c]pyridin-5-yl)-1H-pyrrolo[2,3-b]pyridin-2-yl)methyl)piperidin-4-yl)benzoyl)piperidin-4-yl)methyl)-3-methylpiperazin-1-yl)methyl)-2-oxo-2,3-dihydro-1H-benzo[d]imidazol-1-yl)piperidine-2,6-dione]"
1.4 nM,2.8 nM,"Cc1cc(C(=O)N2CCC(CN3CCN(Cc4ccc5c(c4)n(C)c(=O)n5C4CCC(=O)NC4=O)C[C@@H]3C)CC2)cc(F)c1C1=CCN([C@@H](C)c2cc3c(-n4cc(F)c5c(c4=O)CCN5)ccnc3n2C)CC1 (stereo partly drawn) [Example 3u109, 3-(5-(((S)-4-((1-(3-fluoro-4-(1-((S)-1-(4-(7-fluoro-4-oxo-1,2,3,4-tetrahydro-5H-pyrrolo[3,2-c]pyridin-5-yl)-1-methyl-1H-pyrrolo[2,3-b]pyridin-2-yl)ethyl)-1,2,3,6-tetrahydropyridin-4-yl)-5-methylbenzoyl)piperidin-4-yl)methyl)-3-methylpiperazin-1-yl)methyl)-3-methyl-2-oxo-2,3-dihydro-1H-benzo[d]imidazol-1-yl)piperidine-2,6-dione]"
0.4 nM,0.3 nM,"CNc1ccn(-c2ccnc3c2cc([C@H](C)N2CC=C(c4c(C)cc(C(=O)N5CCC(CN6CCN(Cc7ccc8c(c7)n(C7CC7)c(=O)n8C7CCC(=O)NC7=O)C[C@@H]6C)CC5)cc4F)CC2)n3C)c(=O)c1 (stereo partly drawn) [Example 3u111, 3-(3-cyclopropyl-5-(((S)-4-((1-(3-fluoro-5-methyl-4-(1-((S)-1-(1-methyl-4-(4-(methylamino)-2-oxopyridin-1 (2H)-yl)-1H-pyrrolo[2,3-b]pyridin-2-yl)ethyl)-1,2,3,6-tetrahydropyridin-4-yl)benzoyl)piperidin-4-yl)methyl)-3-methylpiperazin-1-yl)methyl)-2-oxo-2,3-dihydro-1H-benzo[d]imidazol-1-yl)piperidine-2,6-dione]"
8.3 nM,9.1 nM,"CNc1c(F)cn(-c2ccnc3c2cc(CN2CCC(c4c(F)cc(C(=O)N5CCC(CN6CCN(Cc7ccc8c(c7)C7(CC7)C(=O)N8C7CCC(=O)NC7=O)C[C@@H]6C)CC5)cc4F)CC2)n3C)c(=O)c1F (stereo partly drawn) [Example 3u115, 3-(5′-(((S)-4-((1-(4-(1-((4-(3,5-difluoro-4-(methylamino)-2-oxopyridin-1 (2H)-yl)-1-methyl-1H-pyrrolo[2,3-b]pyridin-2-yl)methyl)piperidin-4-yl)-3,5-difluorobenzoyl)piperidin-4-yl)-methyl)-3-methylpiperazin-1-yl)methyl)-2′-oxospiro[cyclopropane-1,3′-indolin]-1′-yl)piperidine-2,6-dione]"
